What was measured:
Multiple Myeloma = assay: Day-100 re-staging (IMWG uniform response criteria) of newly diagnosed MM patients on thalidomide-based regimens; format: in vivo, human
Description: Serum samples from 51 consecutive newly diagnosed MM patients who were having initial treatment with thalidomide-based regimens were analyzed. Samples were obtained at diagnosis and prior to commencement of therapy. The samples were collected according to standard phlebotomy procedures from consented patients. Ethical consent was granted from the Mater Misericordiae University Hospital, Dublin, Ireland ethics committee. 10 ml of blood sample was collected into additive free blood tubes and was allowed to clot for 30 minutes to 1 hour at room temperature. Samples were coded and transported on ice to the laboratory. The serum was denuded by pipette from the clot and place into a clean tube. The tubes were centrifuged at 400 relative centrifugal force (rcf) for 30 minutes at 4° C. Serum was aliquoted in the cryovial tubes, labeled and stored at −80° C. until time of analysis. The time from sample procurement to storage at −80° C. was less than 3 hours. Each serum sample underwent no more than 3 freeze/thaw cycles prior to analysis.
The mean age of the patient group was 68 SD+/−6.95 years (range 52-81 years); 27 were male and 24 female. Based on Day-100 re-staging investigations and using the International Myeloma Working Group (IMWG) uniform response criteria (Rajkumar S V, Buadi F. Multiple myeloma: new staging systems for diagnosis, prognosis and response evaluation. Best Pract Res Clin Haematol. 2007; 20:665-680; Durie B G, Harousseau J L, Miguel J S, et al. International uniform response criteria for multiple myeloma. Leukemia. 2006;20:1467-1473) for MM, 29 responders and 22 non-responders to thalidomide-based therapy were identified. The mean age was 66 SD+/−6.80 years (range, 52-81 years) for responders and 70 SD+/−6.69 years (range, 57-79 years) for non-responders. Based on the ISS classification (Hotta T. [Classification, staging and prognostic indices for multiple myeloma]. Nippon Rinsho. 2007; 65:2161-2166), 6 responding patients had stage I, 15 had stage II and 8 had stage III disease. […] had stage I, 11 had stage II and 9 had stage III disease. In the responders group, 24 patients were treated with thalidomide and dexamethasone (TD), 3 with thalidomide, cyclophosphamide and dexamethasone (CTD) and 2 with melphalan, prednisone and thalidomide (MPT). In the non-responder group, 17 patients received TD, 4 received CTD and 1 patient received MPT. Median follow-up was 13 months (range, 6-21 months). In the responder group, 9 patients achieved complete response (CR) and 20 achieved very good partial response (VGPR). Five non-responders had Stable disease (SD) and the remaining 17 had Progressive disease (PD) (Table I).

[1] = use in myeloma; cited from earlier work
[2] = 51 newly diagnosed MM patients, Day-100 re-staging, IMWG criteria

O=C1CCC(N2C(=O)c3ccccc3C2=O)C(=O)N1 (stereo not drawn) [thalidomide, 2-(2,6-dioxopiperidin-3-yl)-1H-isoindole-1,3(2H)-dione]
number of non-responders (SD or PD) (Multiple Myeloma; [2]): 22 patients | number of responders (CR or VGPR) (Multiple Myeloma; [2]): 29 patients | patients with Progressive disease (PD) (Multiple Myeloma; non-responder group, n=22): 17 patients | patients achieving complete response (CR) (Multiple Myeloma; responder group, n=29): 9 patients | patients achieving very good partial response (VGPR) (Multiple Myeloma; responder group, n=29): 20 patients | serious side effects [1]: thrombo-embolic disease and peripheral neuropathy
